Counter-ions that a name gives are not always drawn. Like-named read-outs stand apart in the source and are kept apart here.
Molecular target: D2 -receptor (Rattus norvegicus, UniProt P61169)
Experiment: Receptor binding test (3H-ADTN, rat striatal membranes)
Design: species or system rats (Sprague Dawley)
[1] = displacement of 1 nM 3H-ADTN, rat striatum membranes, 0.1 μM SCH 23390, 40 min at 25° C., read-out: Ki

D2 -receptor, sequence (P61169 whole entry): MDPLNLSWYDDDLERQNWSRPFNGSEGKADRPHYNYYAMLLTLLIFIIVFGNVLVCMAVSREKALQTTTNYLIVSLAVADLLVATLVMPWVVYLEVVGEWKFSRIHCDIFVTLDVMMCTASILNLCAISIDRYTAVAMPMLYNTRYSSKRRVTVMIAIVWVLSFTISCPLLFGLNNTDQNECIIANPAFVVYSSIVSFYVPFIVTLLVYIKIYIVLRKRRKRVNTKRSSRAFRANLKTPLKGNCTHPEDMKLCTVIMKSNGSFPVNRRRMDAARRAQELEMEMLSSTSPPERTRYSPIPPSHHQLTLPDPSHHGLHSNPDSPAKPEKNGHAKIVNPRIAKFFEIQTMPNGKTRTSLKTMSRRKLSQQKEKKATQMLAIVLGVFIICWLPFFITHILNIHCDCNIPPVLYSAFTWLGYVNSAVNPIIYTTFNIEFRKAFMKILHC
Procedure: Striata from rats (Sprague Dawley, Charles River) were homogenized in 0.32 M sucrose solution (0° C.) immediately after removal. The homogenate was filtered over gauze, the filtrate was centrifuged at 1,000 g (5 min at 4° C.) and the resulting supernatant was centrifuged at 40,000 g (10 min, 4° C.). The residue (membranes) was taken up in incubation buffer (50 mM tris-HCl, 1 mM MgCl2 and 0.1% ascorbic acid, pH 7.4) and incubated for 20 min at 37° C. Washing was then carried out twice with incubation buffer by resuspension and recentrifuging. The membranes were frozen in portions in liquid nitrogen.
The test batches (1 ml) were composed of membranes (380 μg of protein), 1 nM ^3 H-ADTN (NEN, Dreieich Germany, specific radioactivity 1.4 TBq/mmol) and 0.1 μM SCH 23390 (total binding) or a) additionally with 50 nM spiperone (nonspecific binding) or b) with test substance. The batches were prepared in triplicate.
After the end of incubation (40 min at 25° C.), the batches were filtered over glass fiber filters (Whatman GF/B) and washed briefly with ice cold wash buffer (trisHCl, pH 7.4). The radioactivity retained on the filters was determined by liquid scintillation measurement. The nonspecific binding was about 40-50% of the total binding.
Evaluation of the competition curves and determination of the dissociation constant were carried out by iterative nonlinear regression analysis similarly to the program Ligand (Muson and Rodbard: Anal. Biochem. 107 (1980), 220).

Compound	Ki [1] [nM]	Ki [nM]
Nc1nc(-c2cccs2)c(CCN2CC=C(c3ccccc3)CC2)s1 [Example 5, 2-Amino-5-[2-(4-phenyl-1,2,3,6-tetrahydropyridyl)-ethyl]-4-thien-2-ylthiazole dihydrochloride]		10
CCCN(CCCc1sc(N)nc1C)CCc1ccccc1 [Example 10, 2-Amino-4-methyl-5-[3-(N-phenethyl-N-propylamino)-propyl]-thiazole fumarate]	10	
2-Methylamino-4-methyl-5-[3-(4-phenylpiperazin-1-yl)-propyl]-thiazole dihydrochloride [Example 1]	6	
Nc1nc(-c2ccccc2)c(CCCN2CCN(c3ccccc3)CC2)s1 [Example 9, 2-Amino-4-phenyl-5-[3-(4-phenylpiperazin-1-yl)-propyl]-thiazole trihydrochloride]	14	
Cc1nc(N)sc1CCCN1CC=C(c2ccccc2)CC1 [Example 11, 2-Amino-4-methyl-5-[3-(4-phenyl-1,2,3,6-tetrahydropyridyl)-propyl]-thiazoletartrate]		10
Cc1nc(N)sc1CCCN(C)CCc1ccccc1 [Example 2, 2-Amino-4-methyl-5-[3-(N-methyl-N-phenethylamino)-propyl]-thiazole fumarate]	20	
Nc1nc(-c2ccccc2)c(CCN2CC=C(c3ccccc3)CC2)s1 [Example 8, 2-Amino-4-phenyl-5-[2-(4-phenyl-1,2,3,6-tetrahydropyridyl)-ethyl]-thiazole tartrate]		10
COc1ccc(-c2nc(N)sc2CCN2CC=C(c3ccccc3)CC2)cc1 [Example 4, 2-Amino-4-(4-methoxyphenyl)-5-[2-(4-phenyl-1,2,3,6-tetrahydropyridyl)-ethyl]-thiazole]		16
Cc1nc(Nc2ccccc2)sc1CCCN1CC=C(c2ccccc2)CC1 [Example 3, 4-methyl-2-phenylamino-5-[3-(4-phenyl-1,2,3,6-tetrahydropyridyl)-propyl]-thiazole dihydrochloride]		4

Continued, in another order:

Ki [1] [nM]	Compound	Ki [nM]
20	CCCN(CCCc1sc(N)nc1-c1ccccc1)CCc1ccccc1 [Example 23, 2-Amino-4-phenyl-5-[3-(N-propyl-N-phenethylamino)-propyl]-thiazole dihydrochloride]	
16	Nc1nc(-c2ccccc2)c(CCN2CCN(c3ccccc3[N+](=O)[O-])CC2)s1 [Example 22, 2-Amino-5-[2-(4-(2-nitrophenyl)-piperazin-1-yl)-ethyl]-4-phenylthiazole tartrate]	
4	CCCN(CCCCc1sc(N)nc1C)CCc1ccccc1 [Example 25, 2-Amino-4-methyl-5-[4-(N-propyl-N-phenethylamino)-butyl]-thiazole dihydrochloride]	
25	Nc1nc(-c2ccccc2)c(CCCN2CCN(c3ccccc3Cl)CC2)s1 [Example 18, 2-Amino-5-[3-(4-(2-chlorophenyl)-piperazin-1-yl)-propyl]-4-phenylthiazole tartrate]	
15	Nc1nc(-c2ccccc2)c(CCCN2CCN(c3ccccn3)CC2)s1 [Example 14, 2-Amino-4-phenyl-5-[3-(4-pyrid-2-ylpiperazin-1-yl)-propyl]tartrate]	
10	Nc1nc(-c2ccccc2)c(CCCN2CCN(c3ncccn3)CC2)s1 [Example 13, 2-Amino-4-phenyl-5-[3-(4-pyrimid-2-ylpiperazin-1-yl)-propyl]-thiazole tartrate]	

Reference: patent publication US5071864A, “Aminoalkyl-substituted 2-aminothiazoles and therapeutic agents containing them” (BASF Aktiengesellschaft, priority 1989, dated 1991)
